Measured values from ChEMBL document CHEMBL6078684, “Discovery of a Novel Non-invasive AR PROTAC Degrader for the Topical Treatment of Androgenetic Alopecia” (J Med Chem, 2024).
The source made the active and inactive calls. The rule behind the calls is not given here.

Tests used:
[1] = Ratio of drug concentration in male ICR mouse skin to plasma at 4 mg/ml, TOP measured after 0.5 hrs by LC-MS/MS analysis; type: ADME, cell-free; settings: topical or ocular
[2] = Ratio of drug concentration in male ICR mouse skin to plasma at 4 mg/ml, TOP measured after 8 hrs by LC-MS/MS analysis; type: ADME, cell-free; settings: other tissue, topical_or_ocular
Mus musculus [3] = test: Hair regeneration efficacy in testosterone induced male C57BL/6 mouse androgenetic alopecia model assessed as improvement in morphology of regenerated hair at 0.1 %, TOP administered once daily for 14 days with co-administration of 0.2% testosterone and measured after 28 days by SEM analysis; type: functional, organism-based; settings: time 28.0 day
[4] = target: T1, Protein cereblon/Androgen receptor (Homo sapiens, UniProt P10275+Q96SW2); test: PROTAC activity at CRBN/AR in human dermal papilla cells assessed as decrease in AR protein level at 250 to 1000 nM preincubated with testosterone for 24 hrs followed by compound addition and measured after 48 hrs by Western blot analysis; type: cell-based; settings: Human dermal papilla cell, dose 250-1000 nM
Mus musculus [5] = test: Hair regeneration efficacy in testosterone induced male C57BL/6 mouse androgenetic alopecia model assessed as increase in hair cycle score at 0.4 %, TOP administered once daily for 14 days with co-administration of 0.2% testosterone for 28 days; type: functional, organism-based; settings: time 14.0 day
[6] = Ratio of drug concentration in male ICR mouse skin to plasma at 4 mg/ml, TOP measured after 12 hrs by LC-MS/MS analysis; type: ADME, cell-free; settings: other tissue, topical_or_ocular
Mus musculus [7] = test: Hair regeneration efficacy in testosterone induced male C57BL/6 mouse androgenetic alopecia model assessed as increase in Ki67 expression in skin at 0.1 % TOP administered once daily for 14 days with co-administration of 0.2% testosterone for 28 days by DAPI staining based immunofluorescence analysis; type: functional, organism-based; settings: time 14.0 day
[8] = Cmax in male ICR mouse skin at 4 mg/ml, TOP measured after 12 hrs by LC-MS/MS analysis; type: ADME, tissue-based, Skin of body; settings: topical or ocular
[9] = target: T1, Protein cereblon/Androgen receptor; test: PROTAC activity at CRBN/AR in human dermal papilla cells assessed as decrease in TGF-beta1 expression level at 250 to 1000 nM preincubated with testosterone for 24 hrs followed by compound addition and measured after 48 hrs by Western blot analysis; type: cell-based; settings: Human dermal papilla cell, dose 250-1000 nM
Mus musculus [10] = test: Hair regeneration efficacy in testosterone induced male C57BL/6 mouse androgenetic alopecia model assessed as earlier pigmentation at 0.1 to 0.4 %, TOP administered once daily for 14 days and measured after 21 days with co-administration of 0.2% testosterone for 28 days by photographic analysis; type: functional, organism-based; settings: dose 0.1-0.4 %, time 14.0 day
[11] = target: T1, Protein cereblon/Androgen receptor; test: PROTAC activity at CRBN/AR in human dermal papilla cells assessed as induction of AR degradation at 500 nM in presence of MLN4924 by Western blot analysis; type: cell-based; settings: Human dermal papilla cell
Mus musculus [12] = test: Hair regeneration efficacy in testosterone induced male C57BL/6 mouse androgenetic alopecia model at 0.1 to 0.4 %, TOP administered once daily for 14 days and measured after 21 days with co-administration of 0.2% testosterone for 28 days by photographic analysis; type: functional, organism-based; settings: dose 0.1-0.4 %, time 14.0 day
[13] = Ratio of drug concentration in male ICR mouse skin to plasma at 4 mg/ml, TOP measured after 2 hrs by LC-MS/MS analysis; type: ADME, cell-free; settings: other tissue, topical_or_ocular
[14] = Ratio of drug concentration in male ICR mouse skin to liver at 4 mg/ml, TOP measured after 2 hrs by LC-MS/MS analysis; type: ADME, tissue-based; settings: in vivo, topical_or_ocular
[15] = Drug uptake in male Sprague-Dawley rat Dorsal skin assessed as retention rat at 1 mg/ml, TOP measured after 30 mins by LC-MS/MS analysis; type: ADME, tissue-based, Zone of skin; settings: in vivo, topical_or_ocular, 0.5 h

T1 sequence (P10275 whole entry, looked up): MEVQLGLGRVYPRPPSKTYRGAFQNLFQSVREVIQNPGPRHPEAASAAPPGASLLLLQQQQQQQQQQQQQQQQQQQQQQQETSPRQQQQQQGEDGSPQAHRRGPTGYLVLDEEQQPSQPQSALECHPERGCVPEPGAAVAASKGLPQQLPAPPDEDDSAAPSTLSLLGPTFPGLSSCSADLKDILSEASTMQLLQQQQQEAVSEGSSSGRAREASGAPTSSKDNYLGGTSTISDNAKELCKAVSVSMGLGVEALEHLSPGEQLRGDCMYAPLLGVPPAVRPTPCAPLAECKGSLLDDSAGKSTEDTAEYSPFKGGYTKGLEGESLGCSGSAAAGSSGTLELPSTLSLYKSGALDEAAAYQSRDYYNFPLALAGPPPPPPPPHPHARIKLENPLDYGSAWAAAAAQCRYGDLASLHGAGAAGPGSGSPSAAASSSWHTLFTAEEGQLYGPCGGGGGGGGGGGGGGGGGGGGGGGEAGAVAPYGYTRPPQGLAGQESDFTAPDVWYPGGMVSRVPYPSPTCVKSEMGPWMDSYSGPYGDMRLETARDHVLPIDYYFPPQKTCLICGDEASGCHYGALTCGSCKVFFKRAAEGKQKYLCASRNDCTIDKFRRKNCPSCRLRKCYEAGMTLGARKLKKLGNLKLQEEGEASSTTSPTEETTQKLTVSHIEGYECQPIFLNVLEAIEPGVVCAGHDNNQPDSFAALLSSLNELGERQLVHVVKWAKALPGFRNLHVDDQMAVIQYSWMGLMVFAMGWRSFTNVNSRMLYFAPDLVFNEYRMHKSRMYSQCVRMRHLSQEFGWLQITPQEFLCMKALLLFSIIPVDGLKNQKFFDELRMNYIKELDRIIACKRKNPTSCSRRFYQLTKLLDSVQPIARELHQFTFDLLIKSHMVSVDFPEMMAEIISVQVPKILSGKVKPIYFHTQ
T1 sequence (Q96SW2 whole entry, looked up): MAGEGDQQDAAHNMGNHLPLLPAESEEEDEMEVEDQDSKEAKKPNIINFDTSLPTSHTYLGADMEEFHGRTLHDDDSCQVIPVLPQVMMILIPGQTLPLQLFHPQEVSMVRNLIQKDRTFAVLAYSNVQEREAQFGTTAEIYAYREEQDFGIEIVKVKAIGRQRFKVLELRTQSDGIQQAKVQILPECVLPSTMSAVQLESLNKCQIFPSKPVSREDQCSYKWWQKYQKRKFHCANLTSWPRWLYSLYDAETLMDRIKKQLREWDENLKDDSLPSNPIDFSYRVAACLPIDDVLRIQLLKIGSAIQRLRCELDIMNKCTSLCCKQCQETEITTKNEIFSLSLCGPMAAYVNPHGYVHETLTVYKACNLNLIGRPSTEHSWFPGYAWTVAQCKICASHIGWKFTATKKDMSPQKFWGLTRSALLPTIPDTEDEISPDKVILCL

N#Cc1ccc(O[C@H]2CC[C@H](NC(=O)c3ccc(C4CCN(CC5CCCN(c6ccc(C(=O)NC7CCC(=O)NC7=O)cc6)C5)CC4)cc3)CC2)cc1Cl (stereo not given in full)
Kp at 0.5 h [1]: 129 | Ratio [2]: 2610.82 | Activity (Mus musculus [3]): Active | Activity [4]: Active | Activity (Mus musculus [5]): Active | Ratio [6]: 1736.28 | Activity (Mus musculus [7]): Active; Moderate Increase Observed Compared To Model Group | Cmax [8]: 86700 ng/g | Activity [9]: Active | Activity (Mus musculus [10]): Active | Activity [11]: Not active; Compound Activity Dependent On Ubiquitin-Proteosome System | Activity (Mus musculus [12]): Active | Ratio [13]: 1098.91 | Ratio [14]: 441.98 | Drug uptake [15]: 2.48%
